pIC50: −log10 of the molar value. Residues, ends and D or L forms follow the SMILES beside them.
Experiments:
[1] = target: IL-17RA/IL17RC dimerization induced by IL-17A (Homo sapiens, UniProt Q16552); test: IL-17RA/IL17RC dimerization assay in response to IL-17A (PathHunter Cytokine Receptor Assay); type: cell-based; settings: IL-17A at EC80; read-out: IC50 in IL-17RA/IL7RC dimerization assay
Procedure, shortened: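 PathHunter cells with IL-17RA and IL-17RC tagged for β-galactosidase complementation were preincubated 60 min with peptide (1% vehicle). IL-17A was then added at EC80 for 6–16 h at 37 °C, and chemiluminescence was read. Inhibition is relative to the EC80 and vehicle controls.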

[2] = Isoelectric point, log D and log P (SiriusT3); type: physicochemical; settings: for IP (isoelectric point): 25±1° C., 0.15 M KCl; for logD: pH 7.4, pH 7.4, octanol/ISA water, read-out: Log D (7.4); for logP: octanol/ISA water, read-out: logP
[3] = type: physicochemical; settings: pH 7.8
Procedure, shortened: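 Peptides dissolved in phosphate buffer pH 7.8 as 10 mM stocks (more dilute for less soluble ones) and stored at 25 °C. Content measured by reversed-phase UHPLC (C18, 0.5% formic acid water/acetonitrile gradient, DAD 220-400 nm, ESI-MS ion trap) after 1:100 dilution to 100 μM, against 100 μM standards, at T0, 3 days and 1 week.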

Sequence of IL-17RA/IL17RC dimerization induced by IL-17A (Q16552 24-155): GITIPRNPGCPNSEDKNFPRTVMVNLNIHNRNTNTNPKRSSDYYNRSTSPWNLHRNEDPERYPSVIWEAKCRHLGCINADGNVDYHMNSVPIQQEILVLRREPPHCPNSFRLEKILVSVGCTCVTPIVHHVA

| Compound | pIC50 [1] | IP (isoelectric point) [2] | logD [2] | solubility [3] [µM] | logP [2] |
| --- | --- | --- | --- | --- | --- |
| CC[C@H](C)[C@H](NC(=O)[C@H](Cc1c[nH]c2ccccc12)NC(=O)[C@H](CCC(=O)O)NC(=O)[C@H](Cc1ccc(O)cc1)NC(=O)[C@H](CC(C)C)NC(=O)[C@H](CC(=O)O)NC(=O)[C@H](C)NC(=O)[C@@H]1CCCN1C(=O)[C@@H](NC(=O)[C@@H](NC(=O)[C@@H](NC(=O)[C@H](CCSC)NC(=O)[C@@H](NC(C)=O)C(C)C)C(C)C)[C@@H](C)O)[C@@H](C)CC)C(=O)N[C@@H](CCC(=O)O)C(=O)N[C@@H](CCC(=O)O)C(=O)N[C@@H](CCCNC(=N)N)C(=O)N[C@@H](CCCNC(=N)N)C(=O)N[C@@H](CCCNC(=N)N)C(=O)N[C@@H](CCCNC(=N)N)C(=O)N[C@@H](CCCNC(=N)N)C(=O)N[C@@H](CCCNC(=N)N)C(=O)N[C@@H](CCCNC(=N)N)C(=O)N[C@@H](CCCNC(=N)N)C(N)=O [SEQ ID NO: 30] (Ac-VMVTIPADLYEWIEERRRRRRRR-NH2) | > 6.00 | 12.96 | -3.89 | ≥ 100 |  |
| CC[C@H](C)[C@H](NC(=O)[C@H](Cc1c[nH]c2ccccc12)NC(=O)[C@H](CCC(=O)O)NC(=O)[C@H](Cc1ccc(O)cc1)NC(=O)[C@H](CC(C)C)NC(=O)[C@H](CC(=O)O)NC(=O)[C@H](C)NC(=O)[C@@H]1CCCN1C(=O)[C@@H](NC(=O)[C@@H](NC(=O)[C@@H](NC(=O)[C@H](CCSC)NC(=O)[C@@H](NC(=O)[C@H](C)NC(=O)[C@H](CCCCN)NC(=O)[C@H](C)NC(=O)[C@H](C)NC(=O)[C@H](CCCCN)NC(=O)[C@H](CCCCN)NC(=O)[C@H](CCCNC(=N)N)NC(=O)[C@H](C)NC(C)=O)C(C)C)C(C)C)[C@@H](C)O)[C@@H](C)CC)C(=O)N[C@@H](CCC(=O)O)C(=O)N[C@@H](CCC(=O)O)C(N)=O [SEQ ID NO: 31] (Ac-ARKKAAKAVMVTIPADLYEWIEE-NH2) | > 6.00 | 12.5 | -3.59 | > 10000 | -4.9 |
| CC[C@H](C)[C@H](NC(=O)[C@H](Cc1c[nH]c2ccccc12)NC(=O)[C@H](CCC(=O)O)NC(=O)[C@H](Cc1ccc(O)cc1)NC(=O)[C@H](CC(C)C)NC(=O)[C@H](CC(=O)O)NC(=O)[C@H](C)NC(=O)[C@@H]1CCCN1C(=O)[C@@H](NC(=O)[C@@H](NC(=O)[C@@H](NC(=O)[C@H](CCSC)NC(=O)[C@@H](NC(=O)[C@H](CCC(N)=O)NC(=O)[C@H](CO)NC(=O)[C@H](Cc1c[nH]c2ccccc12)NC(=O)[C@H](CCC(=O)O)NC(=O)[C@@H](NC(=O)[C@H](Cc1c[nH]c2ccccc12)NC(=O)[C@H](Cc1c[nH]c2ccccc12)NC(=O)[C@@H](NC(=O)CNC(=O)CNC(C)=O)[C@@H](C)O)[C@@H](C)O)C(C)C)C(C)C)[C@@H](C)O)[C@@H](C)CC)C(=O)N[C@@H](CCC(=O)O)C(=O)N[C@@H](CCC(=O)O)C(N)=O [SEQ ID NO: 32] (Ac-GGTWWTEWSQVMVTIPADLYEWIEE-NH2) | > 6.00 |  | -3.59 | < 50 |  |
| CC[C@H](C)[C@H](NC(=O)[C@H](Cc1c[nH]c2ccccc12)NC(=O)[C@H](CCC(=O)O)NC(=O)[C@H](Cc1ccc(O)cc1)NC(=O)[C@H](CC(C)C)NC(=O)[C@H](CC(=O)O)NC(=O)[C@H](C)NC(=O)[C@@H]1CCCN1C(=O)[C@@H](NC(=O)[C@@H](NC(=O)[C@@H](NC(=O)[C@H](CCSC)NC(=O)[C@@H](NC(=O)[C@H](Cc1c[nH]c2ccccc12)NC(=O)[C@@H](NC(=O)[C@H](CCC(=O)O)NC(=O)[C@H](Cc1c[nH]c2ccccc12)NC(=O)[C@H](Cc1c[nH]c2ccccc12)NC(=O)[C@@H](NC(=O)[C@H](CCC(=O)O)NC(=O)[C@H](CCCCN)NC(=O)CNC(=O)CNC(C)=O)[C@@H](C)O)[C@@H](C)O)C(C)C)C(C)C)[C@@H](C)O)[C@@H](C)CC)C(=O)N[C@@H](CCC(=O)O)C(=O)N[C@@H](CCC(=O)O)C(N)=O [SEQ ID NO: 33] (Ac-GGKETWWETWVMVTIPADLYEWIEE-NH2) | > 6.00 | 4.46 | -1.06 | ≥ 100 | 1.99 |
| CC[C@H](C)[C@H](NC(=O)[C@H](Cc1c[nH]c2ccccc12)NC(=O)[C@H](CCC(=O)O)NC(=O)[C@H](Cc1ccc(O)cc1)NC(=O)[C@H](CC(C)C)NC(=O)[C@H](CC(=O)O)NC(=O)[C@H](C)NC(=O)[C@@H]1CCCN1C(=O)[C@@H](NC(=O)[C@@H](NC(=O)[C@@H](NC(=O)[C@H](CCSC)NC(=O)[C@@H](NC(=O)CNC(=O)[C@H](Cc1c[nH]c2ccccc12)NC(=O)CNC(=O)[C@@H]1CCCN1C(=O)[C@@H](NC(C)=O)C(C)C)C(C)C)C(C)C)[C@@H](C)O)[C@@H](C)CC)C(=O)N[C@@H](CCC(=O)O)C(=O)N[C@@H](CCC(=O)O)C(N)=O [SEQ ID NO: 34] (Ac-VPGWGVMVTIPADLYEWIEE-NH2) | > 6.00 | 5.14 | -3.38 | < 50 | -5.43 |
| CC[C@H](C)[C@H](NC(=O)[C@H](Cc1c[nH]c2ccccc12)NC(=O)[C@H](CCC(=O)O)NC(=O)[C@H](Cc1ccc(O)cc1)NC(=O)[C@H](CC(C)C)NC(=O)[C@H](CC(=O)O)NC(=O)[C@H](C)NC(=O)[C@@H]1CCCN1C(=O)[C@@H](NC(=O)[C@@H](NC(=O)[C@@H](NC(=O)[C@H](CCSC)NC(=O)[C@@H](NC(=O)CNC(=O)[C@H](C)NC(=O)CNC(=O)[C@@H]1CCCN1C(=O)[C@@H](NC(C)=O)C(C)C)C(C)C)C(C)C)[C@@H](C)O)[C@@H](C)CC)C(=O)N[C@@H](CCC(=O)O)C(=O)N[C@@H](CCC(=O)O)C(N)=O [SEQ ID NO: 35] (Ac-VPGAGVMVTIPADLYEWIEE-NH2) | > 6.00 | 5.14 | -3.52 | > 10000 | -5.43 |
| CC[C@H](C)[C@H](NC(=O)[C@H](Cc1c[nH]c2ccccc12)NC(=O)[C@H](CCC(=O)O)NC(=O)[C@H](Cc1ccc(O)cc1)NC(=O)[C@H](CC(C)C)NC(=O)[C@H](CC(=O)O)NC(=O)[C@H](C)NC(=O)[C@@H]1CCCN1C(=O)[C@@H](NC(=O)[C@@H](NC(=O)[C@@H](NC(=O)[C@H](CCSC)NC(=O)[C@@H](NC(=O)CNC(=O)[C@H](CCCCN)NC(=O)CNC(=O)[C@@H]1CCCN1C(=O)[C@@H](NC(C)=O)C(C)C)C(C)C)C(C)C)[C@@H](C)O)[C@@H](C)CC)C(=O)N[C@@H](CCC(=O)O)C(=O)N[C@@H](CCC(=O)O)C(N)=O [SEQ ID NO: 36] (Ac-VPGKGVMVTIPADLYEWIEE-NH2) | > 6.00 | 8.13 | -1.24 | ≥ 100 | -1.09 |
| CC[C@H](C)[C@H](NC(=O)[C@H](Cc1c[nH]c2ccccc12)NC(=O)[C@H](CCC(=O)O)NC(=O)[C@H](Cc1ccc(O)cc1)NC(=O)[C@H](CC(C)C)NC(=O)[C@H](CC(=O)O)NC(=O)[C@H](C)NC(=O)[C@@H]1CCCN1C(=O)[C@@H](NC(=O)[C@@H](NC(=O)[C@@H](NC(=O)[C@H](CCSC)NC(=O)[C@@H](NC(C)=O)C(C)C)C(C)C)[C@@H](C)O)[C@@H](C)CC)C(=O)N[C@@H](CCC(=O)O)C(=O)N[C@@H](CCC(=O)O)C(=O)N[C@H](C(=O)N1CCC[C@H]1C(=O)NCC(=O)N[C@@H](C)C(=O)NCC(=O)N[C@H](C(=O)N1CCC[C@H]1C(=O)NCC(=O)N[C@@H](C)C(=O)NCC(N)=O)C(C)C)C(C)C [SEQ ID NO: 37] (Ac-VMVTIPADLYEWIEEVPGAGVPGAG-NH2) | > 6.70 | 5.14 | -3.9 | > 10000 |  |

Source: patent US11236129B2, “IL-17A binding peptides and medical uses thereof” (Dompe' Farmaceutici S.P.A., priority 2018, dated 2022)
